Consider 11 compounds from patent publication US20220306695A1, “COMPSTATIN ANALOGUES AND THEIR MEDICAL USES” (priority 2019, published 2022).

Where two headings read alike, the source gives them in different places. Starred links: 1 amine or outer side, 2 acyl side, 3 side chain; linkers in the order of their positions; H or OH if unused. Positions of bridges follow the written chain, without caps; N, C: chain ends. Non-standard residues stand in square brackets, D forms with d. Residues, ends and D or L forms follow the SMILES beside them. Groups on a side chain read outwards from the residue. *: point of attachment. Trp(1-Me) = Cn1cc(C[C@H](N)C(=O)O)c2ccccc21; Abu(4-yl) = O=C([C@H](CC[*:3])N[*:1])[*:2]; C18 diacid = O=C(O)CCCCCCCCCCCCCCCCC(=O)*; γGlu = O=C(O)[C@H](CCC(=O)[*:2])N[*:1]; 2Nal = N[C@@H](Cc1ccc2ccccc2c1)C(=O)O; AEEA = NCCOCCOCC(=O)O; Sar = CNCC(=O)O

The assay has as its system classical complement pathway. In words: In vitro haemolysis assay (inhibition of classical complement pathway). The format is cell-based, human. As to the method:
Method The in vitro effect of test compounds was assessed by measuring their inhibitory effect of the classical complement pathway in a haemolysis assay. Briefly, test compounds and reference compounds were dissolved in DMSO and diluted in Tris/Casein Assay Buffer (10 mM Tris, 145 mM NaCl, 0.5 mM MgCl2, 0.15 mM CaCl2, and 0.1% W/V Casein, adjusted to pH 7.4) as 9-point serial dilutions in a 96 well plate. Sensitized sheep red blood cells (RBC) coated with rabbit anti-sheep erythrocyte antiserum (Complement Technology, Inc., TX, USA) were washed in Tris/Casein Assay Buffer. 50 μL from each well of diluted compound was added to a 96-well plate containing 50 μL diluted human serum (Complement Technology, Inc., TX, USA) and incubated for 15 minutes at room temperature. The serum dilution factor was optimized for every serum batch to obtain 70-90% of maximal haemolysis using the protocol. Then 50 μL sensitized sheep red blood cells were added to all wells ([…] per well). After 30 minutes of incubation at 37° C. with gentle agitation, the reaction was stopped by addition of 50 μL Tris STOP Buffer per well (10 mM EDTA, 10 mM Tris, 145 mM NaCl adjusted to pH 7.4). The RBCs were then removed by centrifugation and the resulting supernatant measured for hemolysis by absorbance at 405 nm. The response was normalized relative to a positive and negative control (vehicle) to calculate the IC50 from the concentration response curve using the 4-parameter logistic (4PL) nonlinear model for curve fitting.

Where [1] appears, read: Table 3, human serum, sensitized sheep red blood cells, read-out: IC50[nM], in vitro analysis of inhibition of hemolysis.
[2] abbreviates: Table 4, valine 3 versus isoleucine 3 pairs, read-out: CP hemolysis IC50.

In the case of `CC[C@H](C)[C@H](NC(=O)[C@H](C)NC(=O)[C@H](CO)NC(C)=O)C(=O)N[C@H]1CSSC[C@@H](C(=O)N[C@H](C(=O)N[C@@H](CCC(=O)O)C(=O)NCC(N)=O)[C@@H](C)O)NC(=O)[C@H](CCCNC(=N)N)NC(=O)[C@H](Cc2c[nH]cn2)NC(=O)[C@H](CCC(=O)O)NC(=O)CNC(=O)[C@H](Cc2c[nH]c3ccccc23)NC(=O)[C@H](CC(=O)O)NC(=O)[C@H](CCC(N)=O)NC(=O)[C@H](Cc2c[nH]c3ccccc23)NC(=O)[C@H]([C@@H](C)CC)NC1=O` [Compound 42] (Ac-SAICIWQDWGEHRCTEG-NH2; disulfide 4-14), the IC50 under setting [1] is under 250 nM.

On to `CC[C@H](C)[C@H](NC(C)=O)C(=O)N[C@H]1CSSC[C@@H](C(=O)N[C@H](C(=O)NCC(=O)N[C@@H](C)C(=O)N[C@@H](CCC(=O)O)C(=O)N[C@@H](CO)C(N)=O)[C@@H](C)O)NC(=O)[C@H](CCCNC(=N)N)NC(=O)[C@H](Cc2c[nH]cn2)NC(=O)[C@H](C)NC(=O)CNC(=O)[C@H](Cc2c[nH]c3ccccc23)NC(=O)[C@H](CC(=O)O)NC(=O)[C@H](CCC(N)=O)NC(=O)[C@H](Cc2c[nH]c3ccccc23)NC(=O)[C@H]([C@@H](C)CC)NC1=O` [Compound 47] (Ac-ICIWQDWGAHRCTGAES-NH2; disulfide 2-12), for which, under setting [1], the IC50 was under 100 nM.

Regarding `CC[C@H](C)[C@@H]1NC(=O)[C@@H](NC(=O)[C@H](Cc2ccccc2)NC(=O)[C@H](CCC(=O)O)NC(C)=O)CSSC[C@@H](C(=O)N(C)CC(=O)N[C@@H](CCC(=O)O)C(=O)N[C@@H](C)C(=O)NCCOCCOCC(=O)NCCOCCOCC(=O)N[C@@H](CCCCNC(=O)CC[C@H](NC(=O)CNC(=O)CC[C@H](NC(=O)CCCCCCCCCCCCCCCCC(=O)O)C(=O)O)C(=O)O)C(N)=O)NC(=O)[C@H](CCCNC(=N)N)NC(=O)[C@H](Cc2c[nH]cn2)NC(=O)[C@H](CCC(=O)O)NC(=O)CNC(=O)[C@H](Cc2c[nH]c3ccccc23)NC(=O)[C@H](CC(=O)O)NC(=O)[C@H](CCC(N)=O)NC(=O)[C@H](Cc2cn(C)c3ccccc23)NC1=O` [Compound 145] (Ac-EFCI[Trp(1-Me)]QDWGEHRC[Sar]EA[AEEA][AEEA]K([γGlu-Gly-γGlu-C18 diacid])-NH2; disulfide 3-13), the IC50 under setting [1] is under 100 nM.

On to `CC[C@H](C)[C@@H]1NC(=O)[C@@H](NC(=O)[C@H](Cc2ccc(O)cc2)NC(=O)[C@H](C)NC(=O)[C@H](CO)NC(=O)CNC(=O)[C@H](CCC(=O)O)NC(C)=O)CSSC[C@@H](C(=O)N(C)CC(=O)N[C@@H](CCC(=O)O)C(N)=O)NC(=O)[C@H](CCCNC(=N)N)NC(=O)[C@H](Cc2c[nH]cn2)NC(=O)[C@H](CCC(=O)O)NC(=O)CNC(=O)[C@H](Cc2c[nH]c3ccccc23)NC(=O)[C@H](CCC(=O)O)NC(=O)[C@H](CCC(N)=O)NC(=O)[C@H](Cc2cn(C)c3ccccc23)NC1=O` [Compound 70] (Ac-EGSAYCI[Trp(1-Me)]QEWGEHRC[Sar]E-NH2; disulfide 6-16), for which the IC50 under setting [1] was under 100 nM.

Turning to `CC[C@H](C)[C@H](NC(C)=O)C(=O)N[C@H]1CSSC[C@@H](C(=O)N[C@H](C(=O)N[C@@H](CCC(=O)O)C(=O)NCC(=O)N[C@@H](CCC(=O)O)C(N)=O)[C@@H](C)O)NC(=O)[C@H](CCCNC(=N)N)NC(=O)[C@H](Cc2c[nH]cn2)NC(=O)[C@H](CCC(=O)O)NC(=O)CNC(=O)[C@H](Cc2c[nH]c3ccccc23)NC(=O)[C@H](CC(=O)O)NC(=O)[C@H](CCC(N)=O)NC(=O)[C@H](Cc2c[nH]c3ccccc23)NC(=O)[C@H](C(C)C)NC1=O` [J, reference compound] (Ac-ICVWQDWGEHRCTEGE-NH2; disulfide 2-12), the IC50 under setting [2] is 240 nM.

With `CC[C@H](C)[C@@H]1NC(=O)[C@@H](NC(=O)[C@H](Cc2ccc(O)cc2)NC(=O)[C@H](CCC(=O)O)NC(=O)[C@H](CO)NC(C)=O)CSSC[C@@H](C(=O)N(C)CC(=O)N[C@@H](CCC(=O)O)C(=O)N[C@@H](C)C(N)=O)NC(=O)[C@H](CCCNC(=N)N)NC(=O)[C@H](Cc2c[nH]cn2)NC(=O)[C@H](CCC(=O)O)NC(=O)CNC(=O)[C@H](Cc2c[nH]c3ccccc23)NC(=O)[C@H](CC(=O)O)NC(=O)[C@H](CCC(N)=O)NC(=O)[C@H](Cc2cn(C)c3ccccc23)NC1=O` [Compound 71] (Ac-SEYCI[Trp(1-Me)]QDWGEHRC[Sar]EA-NH2; disulfide 4-14), under setting [1], the IC50 was under 100 nM.

Regarding `CC[C@H](C)[C@H](NC(C)=O)C(=O)N[C@H]1CSSC[C@@H](C(=O)N[C@H](C(N)=O)[C@@H](C)O)NC(=O)[C@H](CCCNC(=N)N)NC(=O)[C@H](Cc2c[nH]cn2)NC(=O)[C@H](CCCNC(=N)N)NC(=O)CNC(=O)[C@H](Cc2c[nH]c3ccccc23)NC(=O)[C@H](CC(=O)O)NC(=O)[C@H](CCC(N)=O)NC(=O)[C@H](Cc2c[nH]c3ccccc23)NC(=O)[C@H]([C@@H](C)CC)NC1=O` [Compound 18] (Ac-ICIWQDWGRHRCT-NH2; disulfide 2-12), under setting [1], the IC50 is under 100 nM.

Turning to `CC[C@H](C)[C@H](NC(C)=O)C(=O)N[C@H]1CSSC[C@@H](C(=O)N[C@H](C(N)=O)[C@@H](C)O)NC(=O)[C@H](CCCNC(=N)N)NC(=O)[C@H](Cc2c[nH]cn2)NC(=O)[C@H](CO)NC(=O)CNC(=O)[C@H](Cc2c[nH]c3ccccc23)NC(=O)[C@H](CC(=O)O)NC(=O)[C@H](CCC(N)=O)NC(=O)[C@H](Cc2c[nH]c3ccccc23)NC(=O)[C@H](C(C)C)NC1=O` [B, reference compound] (Ac-ICVWQDWGSHRCT-NH2; disulfide 2-12), the IC50 under setting [2] was 360 nM.

Consider `CC[C@H](C)[C@H](N)C(=O)N[C@H]1CSSC[C@@H](C(=O)N[C@H](C(N)=O)[C@@H](C)O)NC(=O)[C@H](CCCN=C(N)N)NC(=O)[C@H](Cc2cnc[nH]2)NC(=O)[C@H](Cc2cnc[nH]2)NC(=O)CNC(=O)[C@H](Cc2c[nH]c3ccccc23)NC(=O)[C@H](CC(=O)O)NC(=O)[C@H](CCC(N)=O)NC(=O)[C@H](C(C)C)NC(=O)[C@H](C(C)C)NC1=O` [Compstatin], for which the concentration for half-maximal inhibition (IC50) (Table 3, cells that print μM, read-out: IC50, in vitro analysis of inhibition of hemolysis) was over 5000 nM.

`CC[C@H](C)[C@@H]1NC(=O)[C@@H](NC(=O)[C@H](Cc2ccccc2)NC(=O)[C@H](CCC(=O)O)NC(=O)[C@H](CO)NC(C)=O)CSCC[C@@H](C(=O)N[C@H](C(=O)N[C@@H](CCC(=O)O)C(=O)NCC(=O)N[C@@H](CCC(=O)O)C(=O)NCC(=O)NCC(=O)NCC(=O)N[C@@H](CCCCNC(=O)CC[C@H](NC(=O)CNC(=O)CC[C@H](NC(=O)CCCCCCCCCCCCCCCCC(=O)O)C(=O)O)C(=O)O)C(N)=O)[C@@H](C)O)NC(=O)[C@H](CCCNC(=N)N)NC(=O)[C@H](Cc2c[nH]cn2)NC(=O)[C@H](CCC(=O)O)NC(=O)CNC(=O)[C@H](Cc2c[nH]c3ccccc23)NC(=O)[C@H](CC(=O)O)NC(=O)[C@H](CCC(N)=O)NC(=O)[C@H](Cc2cn(C)c3ccccc23)NC1=O` [Compound 157, Ac-SEFA(1)I[1-Me-Trp]QDWGEHRhC(1)TEGEGGG-K([17-carboxy-heptadecanoyl][γGlu]G[γGlu])-NH2] (Ac-SEFCI[Trp(1-Me)]QDWGEHR[Abu(4-yl)]TEGEGGGK([γGlu-Gly-γGlu-C18 diacid])-NH2; thioether 4-14): under setting [1], the IC50 was under 100 nM.

Consider `CC[C@H](C)[C@@H]1NC(=O)[C@@H](NC(=O)[C@H](Cc2ccccc2)NC(C)=O)CSSC[C@@H](C(=O)N[C@H](C(=O)NCC(=O)N[C@@H](C)C(=O)N[C@@H](CCC(=O)O)C(=O)N[C@@H](CO)C(N)=O)[C@@H](C)O)NC(=O)[C@H](CCCNC(=N)N)NC(=O)[C@H](Cc2c[nH]cn2)NC(=O)[C@H](CCC(=O)O)NC(=O)CNC(=O)[C@H](Cc2c[nH]c3ccccc23)NC(=O)[C@H](CC(=O)O)NC(=O)[C@H](CCC(N)=O)NC(=O)[C@H](Cc2ccc3ccccc3c2)NC1=O` [Compound 64] (Ac-FCI[2Nal]QDWGEHRCTGAES-NH2; disulfide 2-12), for which, under setting [1], the IC50 was under 100 nM.

As usually defined, the IC50 is the concentration at which inhibition is half-maximal.
